Several values for one entry are separate records, joined by “and”; a condition that tells them apart may be missing. Equal entries are not always repeated. Inconclusive results and toxic doses are left out. The calls were made as follows: active = survival T/C of 150% or more; inactive = T/C below 125% in these data.
System: BDF1 mice, P388 leukemia ip, median survival T/C
Test: NCI In Vivo Anticancer Drug Screen. Data for tumor model P388 Leukemia (intraperitoneal) in B6D2F1 (BDF1) mice
Conditions: endpoint: median survival time, higher = longer survival
Summary of the method: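 Transplantable tumour in mice; compound vs vehicle dosing; survival scored; ratio of treated to control reported.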

[1] = dose: 100.0 mg/kg/injection, schedule: Q01DX009 (ip), vehicle: saline with Tween-80
[2] = dose: 200.0 mg/kg/injection, schedule: Q01DX009 (ip), vehicle: saline with Tween-80
[3] = dose: 400.0 mg/kg/injection, schedule: Q01DX009 (ip), vehicle: saline with Tween-80
[4] = dose: 100.0 mg/kg/injection, schedule: Q01DX009 (ip), vehicle: Klucel (hydroxypropylcellulose) (HPC)
[5] = dose: 200.0 mg/kg/injection, schedule: Q01DX009 (ip), vehicle: Klucel (hydroxypropylcellulose) (HPC)
[6] = dose: 18.0 mg/kg/injection, schedule: Q01DX009 (ip), vehicle: Klucel (hydroxypropylcellulose) (HPC)
[7] = dose: 36.0 mg/kg/injection, schedule: Q01DX009 (ip), vehicle: Klucel (hydroxypropylcellulose) (HPC)
[8] = dose: 50.0 mg/kg/injection, schedule: Q01DX009 (ip), vehicle: saline with Tween-80
[9] = dose: 12.5 mg/kg/injection, schedule: Q01DX009 (ip), vehicle: Klucel (hydroxypropylcellulose) (HPC)
[10] = dose: 25.0 mg/kg/injection, schedule: Q01DX009 (ip), vehicle: Klucel (hydroxypropylcellulose) (HPC)
[11] = dose: 100.0 mg/kg/injection, schedule: Q04DX002 (ip), vehicle: saline with Tween-80
[12] = dose: 200.0 mg/kg/injection, schedule: Q04DX002 (ip), vehicle: saline with Tween-80
[13] = dose: 200.0 mg/kg/injection, schedule: Q04DX003 (ip), vehicle: Klucel (hydroxypropylcellulose) (HPC)

Measured: T/C

O=C1C(CO)=C[C@@H](O)[C@H]2O[C@@H]12
active: dose: 6.2 mg/kg/injection, schedule: Q01DX001 (ip), vehicle: saline 155 % of control | dose: 12.5 mg/kg/injection, schedule: Q01DX001 (ip), vehicle: saline 160 % of control | dose: 25.0 mg/kg/injection, schedule: Q01DX001 (ip), vehicle: saline 150 % of control | dose: 96.0 mg/kg/injection, schedule: Q01DX010 (ip), vehicle: saline 160 % of control and 161 % of control | dose: 192.0 mg/kg/injection, schedule: Q01DX010 (ip), vehicle: saline 160 % of control | dose: 384.0 mg/kg/injection, schedule: Q01DX010 (ip), vehicle: saline 175 % of control
inactive: dose: 0.75 mg/kg/injection, schedule: Q01DX010 (ip), vehicle: saline 95 % of control | dose: 1.5 mg/kg/injection, schedule: Q01DX010 (ip), vehicle: saline 110 % of control | dose: 3.0 mg/kg/injection, schedule: Q01DX010 (ip), vehicle: saline 95 % of control and 120 % of control | dose: 6.0 mg/kg/injection, schedule: Q01DX010 (ip), vehicle: saline 95 % of control | dose: 12.0 mg/kg/injection, schedule: Q01DX010 (ip), vehicle: saline 100 % of control | dose: 24.0 mg/kg/injection, schedule: Q01DX010 (ip), vehicle: saline 114 % of control and 115 % of control | dose: 50.0 mg/kg/injection, schedule: Q01DX010 (ip), vehicle: saline 110 % of control

CO/C=C1\Cc2cc(OC)c(OC)cc2C1=O
inactive: [1] 90 % of control | [2] 100 % of control | [3] 109 % of control

CC(=O)OCC(=O)[C@@]1(O)CC[C@H]2[C@@H]3CCC4=CC(=O)[C@H](C)C[C@]4(C)[C@H]3[C@@H](O)C[C@@]21C
inactive: [4] 118 % of control | [5] 109 % of control | dose: 400.0 mg/kg/injection, schedule: Q01DX009 (ip), vehicle: Klucel (hydroxypropylcellulose) (HPC) 118 % of control

O=C(NC(CO)Cc1ccccc1)c1ccccc1 (stereo not drawn)
inactive: dose: 9.0 mg/kg/injection, schedule: Q01DX009 (ip), vehicle: Klucel (hydroxypropylcellulose) (HPC) 102 % of control | [6] 95 % of control | [7] 99 % of control | dose: 72.0 mg/kg/injection, schedule: Q01DX009 (ip), vehicle: Klucel (hydroxypropylcellulose) (HPC) 99 % of control

O=[N+]([O-])c1cc([N+](=O)[O-])c2ccccc2c1NS(=O)(=O)c1ccc(Br)cc1
inactive: dose: 25.0 mg/kg/injection, schedule: Q01DX009 (ip), vehicle: saline with Tween-80 112 % of control | [8] 113 % of control

O=[N+]([O-])c1ccc(NC2CCCCC2)c2c1no[n+]2[O-]
inactive: dose: 6.25 mg/kg/injection, schedule: Q01DX009 (ip), vehicle: saline 95 % of control | dose: 12.5 mg/kg/injection, schedule: Q01DX009 (ip), vehicle: saline 97 % of control | dose: 25.0 mg/kg/injection, schedule: Q01DX009 (ip), vehicle: saline 95 % of control

O=C1c2ccc(Br)cc2-c2cc(Br)ccc21
inactive: [1] 99 % of control | [2] 106 % of control | [3] 101 % of control

C(=N\OCCc1ccccc1)/c1cccnc1
inactive: dose: 100.0 mg/kg/injection, schedule: Q01DX009 (ip), vehicle: saline sonified 100 % of control | dose: 200.0 mg/kg/injection, schedule: Q01DX009 (ip), vehicle: saline sonified 110 % of control

CCCCCCCCCCC(=O)CCCCCC
inactive: dose: 100.0 mg/kg/injection, schedule: Q04DX003 (ip), vehicle: other 104 % of control | dose: 200.0 mg/kg/injection, schedule: Q04DX003 (ip), vehicle: other 122 % of control | dose: 400.0 mg/kg/injection, schedule: Q04DX003 (ip), vehicle: other 109 % of control

O=C(Nc1ccccc1C(F)(F)F)Oc1ccc(Cl)cc1Cl
inactive: dose: 100.0 mg/kg/injection, schedule: Q04DX003 (ip), vehicle: saline with Tween-80 122 % of control | dose: 200.0 mg/kg/injection, schedule: Q04DX003 (ip), vehicle: saline with Tween-80 109 % of control | dose: 400.0 mg/kg/injection, schedule: Q04DX003 (ip), vehicle: saline with Tween-80 118 % of control

CO[C@H]1OC(=O)C=C2C1=C[C@H]1OC(=O)[C@@]3(C)CCC[C@@]2(C)[C@@H]13
inactive: [9] 100 % of control | [10] 100 % of control

CCCOC(=O)C(F)C(Br)C(=O)OCCC (stereo not drawn)
inactive: [8] 89 % of control | [1] 99 % of control | [2] 118 % of control

CC(/C=N/NC(N)=S)Cc1ccc(C(C)C)cc1 (stereo not drawn)
inactive: dose: 7.0 mg/kg/injection, schedule: Q01DX009 (ip), vehicle: saline with Tween-80 110 % of control | dose: 7.0 mg/kg/injection, schedule: Q04DX003 (ip), vehicle: saline with Tween-80 100 % of control | dose: 14.0 mg/kg/injection, schedule: Q01DX009 (ip), vehicle: saline with Tween-80 115 % of control | dose: 14.0 mg/kg/injection, schedule: Q04DX003 (ip), vehicle: saline with Tween-80 104 % of control | dose: 28.0 mg/kg/injection, schedule: Q04DX003 (ip), vehicle: saline with Tween-80 95 % of control

CCC1COC(=O)N1 (stereo not drawn)
inactive: dose: 25.0 mg/kg/injection, schedule: Q04DX003 (ip), vehicle: saline 109 % of control | dose: 50.0 mg/kg/injection, schedule: Q04DX003 (ip), vehicle: saline 104 % of control | dose: 100.0 mg/kg/injection, schedule: Q04DX003 (ip), vehicle: saline 95 % of control

O=C(COc1cc(Cl)c(Cl)cc1Cl)OCCOc1cc(Cl)c(Cl)cc1Cl
inactive: dose: 3.13 mg/kg/injection, schedule: Q01DX009 (ip), vehicle: saline with Tween-80 91 % of control | dose: 3.13 mg/kg/injection, schedule: Q04DX003 (ip), vehicle: saline with Tween-80 100 % of control | dose: 6.25 mg/kg/injection, schedule: Q04DX003 (ip), vehicle: saline with Tween-80 95 % of control | dose: 12.5 mg/kg/injection, schedule: Q04DX003 (ip), vehicle: saline with Tween-80 100 % of control

CN(C)C=Nc1ccc2c3c(cccc13)CC2
inactive: dose: 6.25 mg/kg/injection, schedule: Q01DX009 (ip), vehicle: Klucel (hydroxypropylcellulose) (HPC) 103 % of control | [9] 99 % of control | dose: 16.6 mg/kg/injection, schedule: Q01DX009 (ip), vehicle: Klucel (hydroxypropylcellulose) (HPC) 115 % of control | [10] 114 % of control

COc1ccc(C=Nc2c(N)[nH]c(=S)[nH]c2=O)cc1
inactive: [11] 115 % of control and 117 % of control | [12] 105 % of control and 117 % of control

C=C(C)C(=O)OC1CC2=CC(CC3(C)OC3C3OC(=O)C(=C)C13)OC2=O (stereo not drawn)
inactive: dose: 4.5 mg/kg/injection, schedule: Q01DX009 (ip), vehicle: Klucel (hydroxypropylcellulose) (HPC) 101 % of control | [6] 106 % of control | [7] 117 % of control

OC(Cc1cnc2ccccc2c1)(c1ccccc1)c1ccccc1
inactive: dose: 25.0 mg/kg/injection, schedule: Q04DX002 (ip), vehicle: saline with Tween-80 98 % of control and 103 % of control | dose: 50.0 mg/kg/injection, schedule: Q04DX002 (ip), vehicle: saline with Tween-80 99 % of control and 117 % of control | [11] 98 % of control and 103 % of control | [12] 94 % of control and 99 % of control and 100 % of control | dose: 400.0 mg/kg/injection, schedule: Q04DX002 (ip), vehicle: saline with Tween-80 98 % of control

COC1(c2ccccc2)CN(Cc2ccccc2)CCO1 (stereo not drawn)
inactive: dose: 50.0 mg/kg/injection, schedule: Q01DX009 (ip), vehicle: Klucel (hydroxypropylcellulose) (HPC) 113 % of control | [4] 118 % of control | dose: 100.0 mg/kg/injection, schedule: Q04DX003 (ip), vehicle: Klucel (hydroxypropylcellulose) (HPC) 113 % of control | [5] 95 % of control | [13] 113 % of control

c1coc(NC2CCCCC2)n1
inactive: dose: 100.0 mg/kg/injection, schedule: Q01DX001 (ip), vehicle: saline with Tween-80 90 % of control | dose: 200.0 mg/kg/injection, schedule: Q01DX001 (ip), vehicle: saline with Tween-80 95 % of control | dose: 400.0 mg/kg/injection, schedule: Q01DX001 (ip), vehicle: saline with Tween-80 95 % of control

CCC1CN1CC1CO1 (stereo not drawn)
active: [13] 204 % of control | dose: 300.0 mg/kg/injection, schedule: Q04DX003 (ip), vehicle: Klucel (hydroxypropylcellulose) (HPC) 190 % of control and 218 % of control
inactive: dose: 8.3 mg/kg/injection, schedule: Q04DX003 (ip), vehicle: Klucel (hydroxypropylcellulose) (HPC) 110 % of control | dose: 12.0 mg/kg/injection, schedule: Q04DX003 (ip), vehicle: Klucel (hydroxypropylcellulose) (HPC) 120 % of control | dose: 29.0 mg/kg/injection, schedule: Q04DX003 (ip), vehicle: Klucel (hydroxypropylcellulose) (HPC) 119 % of control

Source: PubChem BioAssay AID328 (DTP/NCI, 2004)
